Assay: method code SF, from DOI: 10.1021/jm00226a007, PMID: 817022
Settings: pH 7.4

Row | Compound | logD
1 | COc1cc(C(=O)NN)ccn1 | -0.1

Assay: method code SF-AS, from DOI: 10.1021/jm00226a007, PMID: 817022
Settings: pH 7.4

Row | Compound | logD
2 | CCOc1cc(C(=O)NN)ccn1 | 0.48
3 | NNC(=O)c1ccnc(Cl)c1 | 0.11
4 | CC(=O)Nc1cc(C(=O)NN)ccn1 | -1.25
5 | NNC(=O)c1ccnc(N)c1 | -0.98
6 | NNC(=O)c1ccnc(-c2ccccc2)c1 | 1.36
7 | NNC(=O)c1ccnc(Br)c1 | 0.25
8 | CC(C)Cc1cc(C(=O)NN)ccn1 | 1.02
9 | CC(=O)NCc1cc(C(=O)NN)ccn1 | -1.58
10 | NNC(=O)c1ccnc([N+](=O)[O-])c1 | -0.76
11 | Cc1cc(C(=O)NN)ccn1 | -0.37
12 | NNC(=O)c1ccnc(Cc2ccccc2)c1 | 1.01
13 | CCN(CC)c1cc(C(=O)NN)ccn1 | 1.12
14 | NNC(=O)c1ccnc(I)c1 | 0.52
15 | CCc1cc(C(=O)NN)ccn1 | 0.12
16 | CCCc1cc(C(=O)NN)ccn1 | 0.63
17 | NNC(=O)c1ccnc(F)c1 | -0.11

— the SangsterLogP compilation
